This is an account of results in PMC11997307, “Rat Sarcoma (RAS)-Protein-Targeting Synthetic Cell-Penetrating Peptide as an Anticancer Biomaterial” (Biomaterials Research, 2025).

Data set [1] has as its system phospho-c-RAF and phospho-ERK1/2 in MDA-MB-231 cells. Briefly: Western blot of RAS-MAPK pathway, MDA-MB-231. The data set is classed as cell-based, human. Conditions: MDA-MB-231, 10-250 μM RBP 6 h then 50 ng/ml EGF 10 min. As for the experimental part: Protein expression was confirmed via Western blot analysis. Briefly, 9 × 10^5 cells were cultured in 100-mm-diameter dishes. When they reached 90% confluence, the cells were starved for 18 h in serum-free medium. […] At the end of the culture period, the cells were lysed for 20 min in cold lysis buffer on ice. Protein concentration was measured using bicinchoninic acid protein assays (Thermo Fisher Scientific, MA, USA). Equal aliquots of protein (40 μg) were boiled for 7 min in 5× sample buffer and separated by 10% SDS–PAGE. Proteins were transferred onto nitrocellulose membranes, followed by washing with Tris-buffered saline (TBS) containing 0.1% Tween 20 (TBST). The membranes were then blocked for 60 min at room temperature with 5% skim milk in TBST. Following the washing procedure, the membranes were incubated with primary antibodies (RAS, phospho-ERK1/2, ERK1/2, phospho-RAF proto-oncogene serine/threonine-protein kinase [phospho-c-RAF; S338], c-RAF [Cell Signaling Technology, Beverly, MA, USA], and GAPDH [Santa Cruz Biotechnology, Inc., Santa Cruz, CA, USA]) diluted in TBST containing 5% skim milk at 4 °C for 18 h. […] The membranes were subsequently washed 3 more times, and protein bands were detected using chemiluminescence reagents (West Pico PLUS, Thermo Fisher Scientific, USA).
(In western blotting, separated proteins are transferred to a membrane and probed.)

The test system of data set [2] is MDA-MB-231 cell-derived tumors. It counts as in vivo. As to the method: Fertilized white leghorn eggs, sourced from the Société Française de Production Avicole (St. Brieuc, France), were incubated for 9 d at 37.5 °C with 50% relative humidity. On embryonic day 9 (E9), a small hole was drilled into the air sac to lower the chorioallantoic membrane (CAM), and a 1-cm^2 window was created in the eggshell above the CAM. The MDA-MB-231 cell line was cultivated in DMEM supplemented with 10% FBS (and 1% penicillin/streptomycin). Cells (at 90% confluency, passages 30 to 32) were detached from culture plates with trypsin/EDTA, rinsed with complete medium, and suspended in graft medium. An inoculum of 1 × 10^6 cells was added onto the CAM of each egg. The eggs were randomly assigned to groups. On day 10 (E10), tumors were detectable. They were then treated every 2 d for 9 d (E11, E13, E15, and E17); specifically, 100 μl of the vehicle or 100 μl of the peptide (10 mg/kg) was added dropwise to the tumor. Angiogenesis was estimated by calculating the number of vessels on the CAM that irrigated tumors. Because tumors generated from MDA-MB-231 cells are hemorrhagic, images were obtained at E16 (2 d before collection to ensure that all vessels in the CAM were visible). On day 18 (E18), the upper portion of the CAM containing the tumor was removed, washed in PBS, and then directly transferred to paraformaldehyde (for 48 h for fixation). The tumors were then carefully removed from normal CAM tissue and weighed. The extent of treatment toxicity was evaluated according to the number of dead embryos after 9 d of treatment and observation of visible macroscopic abnormalities at the end point.
In parallel, a 1-cm^2 portion of the lower CAM was collected to evaluate the number of metastatic cells. Genomic DNA was extracted from the CAM and analyzed for human Alu sequences via quantitative polymerase chain reaction (qPCR) with specific primers. Calculation of the Cq for each sample, the mean Cq, and the number of metastases for each group were performed with the Bio-Rad CFX Maestro software (Bio-Rad, Hercules, CA, USA). According to the real-time PCR data markup language data standard (http://www.rdml.org), Cq is defined as the cycle at which the amplification curve […] (fractional PCR cycles). The Cq value is obtained in the exponential phase, where the qPCR curve is linear. This is the basic result of qPCR: lower Cq values indicate higher initial copy numbers of the target gene. When the PCR efficiency is 100%, a difference of 1 cycle between 2 reactions means that there are 2 times more copies (genes) in the reaction with the lower Cq value than in the reaction with the higher Cq value. One-way analysis of variance (ANOVA) with post hoc tests was performed on the data.
On day 18 (E18), 5 tumor samples per group (different from the tumor samples used for tumor weight determination) were collected to evaluate the infiltration of immune cells. Each tumor sample was cut to a small size (<0.5 cm^3) and kept in 5 volumes of RNAlater solution at 4 °C. The extracted RNA was analyzed via reverse transcription qPCR with specific primers for chicken CD3 and CD4 sequences. The Bio-Rad CFX Maestro software was used to calculate the Cq values for each sample, determine the mean Cq, and quantify the relative expression of immune cell markers in each group.
Three tumors per group were harvested and fixed in 4% formaldehyde, washed, and then stored in 70% ethanol until needed for experiments. The tumors were cut to a standard size and placed in an embedding cassette. The paraffin blocks were sectioned at a thickness of approximately 3 to 5 μm. The cells were placed on a glass slide, stained with hematoxylin and eosin (H&E) and Ki-67, and covered in an automated machine. Pictures were taken via a microscope (Olympus BX60, serial no. 7D04032, Shinjuku, Japan) at a magnification of ×4 and a microscope camera (Olympus DP73, serial no. OH05504, Shinjuku, Japan). […]

The next data set deals with MDA-MB-231 cells. Briefly: Transwell migration assay. It counts as cell-based, human. As to conditions: MDA-MB-231, Transwell 8-μm pore, 200 μM RBP, 6 h. As to the method:
To assess MDA-MB-231 cell migration, 2 methods were employed: a Transwell migration assay and a scratch assay. For the Transwell migration assay, 24-well Transwell plates (8-μm pore size; Costar, Corning Incorporated, Corning, NY, USA) were used to evaluate the invasive potential of the cells. […] Following a 6-h incubation period, nonmigratory cells were carefully removed from the upper surface of the membrane using a PBS-soaked cotton swab. The cells that successfully migrated through the membrane were fixed in methanol for 10 min, and Giemsa staining was used to visualize them. Images were captured using an Olympus DP72 camera at ×100 magnification, and the number of migrated cells in the treated samples was compared with that in the control samples. For the scratch assay, MDA-MB-231 cells (1 × 10^6 cells) were cultured in 6-well plates until they reached confluence. The cells were rinsed with PBS and incubated overnight in serum-free medium. A sterile 200-μl plastic pipette tip was used to create a linear scratch in the center of the monolayer. […] Images were taken immediately after scratching and again after 6, 24, 48, and 72 h of incubation using an Olympus CKX41 inverted microscope at ×20 magnification to evaluate the distance the cells migrated from the wound edge.

[3] abbreviates: chicken egg CAM tumors, 10 mg/kg, E18, 5 tumors per group, normalized to GAPDH.

Each structure is given as a SMILES string.

As for `C[C@@H](O)[C@H](NC(=O)[C@H](CO)NC(=O)[C@H](CS)NC(=O)[C@H](CCCCN)NC(=O)CN)C(=O)N[C@@H](CCCNC(=N)N)C(=O)NCC(=O)N[C@@H](CCCNC(=N)N)C(=O)N[C@@H](CCCCN)C(=O)N[C@@H](CS)C(=O)N[C@@H](CS)C(=O)N[C@@H](CCCNC(=N)N)C(=O)N[C@@H](CCCNC(=N)N)C(=O)N[C@@H](CCCCN)C(=O)N[C@@H](CCCCN)C(N)=O` [RBP], the “activation of RAF (phospho-c-RAF)” value in data set [1] is listed as “effectively inhibited”. In addition, the “phosphorylation of ERK1/2” value in data set [1] (p-ERK/ERK, n = 3) is on record as “effectively inhibited”. Besides, the “Ki-67 expression in tumor sections (IHC)” value in data set [2] (chicken egg CAM tumors, 10 mg/kg) was “reduced Ki-67 expression”. In data set [2] (setting [3]), the “infiltration of CD3-positive immune cells in tumors (chicken CD3 mRNA, RT-qPCR)” value is listed as “increased infiltration” and the “infiltration of CD4-positive immune cells in tumors (chicken CD4 mRNA, RT-qPCR)” value is recorded as “increased infiltration”. Moreover, the formation of microvessels entry in data set [2] (chicken egg CAM, 10 mg/kg, E16) is listed as “significantly suppressed”. The “metastasis of MDA-MB-231 cells to lower CAM (human Alu qPCR)” value in data set [2] (chicken egg CAM, 10 mg/kg, E18, P < 0.01 vs Neg Ctrl) is “significantly inhibited”. Besides, the “number of vessels reaching and feeding the tumors” value in data set [2] (chicken egg CAM, 10 mg/kg, images at E16, P < 0.05 vs Neg Ctrl) is reported as “significantly reduced”. Moreover, the average tumor weight in data set [2] (chicken egg CAM, MDA-MB-231, 10 mg/kg at E11, E13, E15, E17, collected E18, mean ± SD, P < 0.01 vs Neg Ctrl (54.40 ± 12.22 mg)) came out at 22.10 ± 5.86 mg. The “embryo mortality compared to negative control” value in data set [2] (in vivo, 10 mg/kg) was “no statistically significant difference”. Moreover, in the data set on MDA-MB-231 cells, the “reduction of cell invasion vs NT group” value was determined as 70%.
